Measured values as given in a melting point compilation (Tetko et al.; mined from patent text by program, amines drawn as free bases though some values may be those of a salt).

SMILES | melting point [°C]
CCOC(=O)NCCN1c2ccccc2N2CCc3cccc(c32)C1C (stereo not drawn) | 94 to 96
N#CC(=Cc1cc(O)c(O)c(Br)c1)C(=O)Nc1cccc(Cl)c1 | 266 to 270
O=c1[nH]c(NCCCNc2ncccc2Cl)ncc1Cc1ccc(Cl)cc1 | 180 to 181
O=P(O)(O)Cc1ccc(CS(=O)(=O)c2ccccc2)cc1 | > 280
CCOC(=O)c1sc(N)nc1-c1ccc(Cl)cc1 | 198 to 200
Cc1nnc(C(O)CCCCCCOc2ccc(OCc3ccccc3)cc2)o1 (stereo not drawn) | 98 to 100
c1ccc(OCCCN2CCC(CNc3nc4ccccc4s3)CC2)cc1 | 114
O=c1[nH]cc(-c2cnccn2)cc1Br | > 250
Cc1cccc(CC(Nc2ccccc2)C(=O)NC(C#N)COCc2cccc(-c3nnn[nH]3)c2)c1 (stereo not drawn) | 120 to 122
CCSc1cc(C)nc(SCC)c1NC(=O)CCCCSc1nc2c(C)c(Cl)cc(C(C)C)c2o1 | 141 to 142
OC1=NC2CCCc3cccc(c32)N1 (stereo not drawn) | 230 to 233
O=C(Nc1cccc2ccccc12)OCCCC(=O)c1ccccc1 | 95 to 97
COC(=O)C[C@@H](CC(=O)C=Cc1c(-c2ccc(F)cc2)c(-c2ccccc2)c(C(=O)NCc2ccc(F)cc2)n1C(C)C)O[Si](C)(C)C(C)(C)C | 62 to 63
CCNC(=O)c1cc2c(nc(C)n2C)c2c1CCC1(Cc3ccccc3C1)N2 | 223 to 224
CCCCCCC(Oc1ccc(C2=CCCCC2)cc1)C(=O)O (stereo not drawn) | 70 to 71
COC(=O)C(C(=O)OC)c1c(C(=O)OCc2ccc(OC)cc2)cc([N+](=O)[O-])c2ccccc12 | 124 to 125
CC(=O)Nc1nc2c(s1)-c1nc(-c3ccccc3)ncc1C2 | > 300
COC(=O)c1ncn2c3cccc(Cl)c3c(=O)n(C)c12 | 210 to 220
CC(C(=O)O)c1ccc(Oc2ccc(Cl)cc2)cc1 (stereo not drawn) | 105 to 107
O=[N+]([O-])c1ccccc1-c1cc(F)c(F)c(F)c1 | 79
Cc1ccc(S(=O)(=O)n2c3cccc(CCl)c3c3c(C)ccc(C)c32)cc1 | 149
O=[N+]([O-])c1cccc(C(O)CO)c1 (racemic) | 45
CC1(CN2CCC(N3CCNC3=O)CC2)OCc2ccccc2-n2cccc21 (stereo not drawn) | 197 to 199
O=c1[nH]c(CCN2CCCCC2)cc2c(O)cccc12 | 261 to 263
CCc1c(C(F)(F)F)nn(-c2ccc(S(N)(=O)=O)cc2)c1-c1ccc(OC)c(C)c1 | 135 to 136

SMILES | melting point [°C]
CCCOc1ccc(-c2cccc3nc(N)c4ncn(CC(C)C)c4c23)cc1 | 181 to 182
CCOC(=O)c1nc(NC)sc1C(=O)CC | 84 to 86
COc1ccc2c(c1)C(C(=O)O)CCO2 (stereo not drawn) | 97.4
CCc1nc(N)nc(N)c1-c1ccc(N(C)Cc2ccc(C(=O)NC)cc2)c([N+](=O)[O-])c1 | 235 to 237
COc1cc2c(cc1O)CCCN(Cc1ccccc1OC)C2 | 136 to 137
Cc1cc(C)c2c(c1)SCCC2=NO | 170 to 174
CC(C)NS(=O)(=O)Oc1ccc(F)cc1 | 145 to 146
COc1ccc(C2CCN(C(=O)C(=O)NO)CC2)cc1C=C1CCCCCC1 | 135 to 136
O=[N+]([O-])CS(=O)(=O)c1ccccc1F | 59
COc1nc2cc(Cl)c(Cl)c(N(S(C)(=O)=O)S(C)(=O)=O)c2nc1OC | 240 to 244
CCCN(C)C(C)CN1CCc2c(c(=O)oc3cc(OC)ccc23)C1 (stereo not drawn) | 69 to 71
CCOC(=O)c1ccc(NC(=O)N2CCn3c(c(C(N)=O)c(Cl)c3-c3ccccc3)C2)cc1 | 260 to 262
CCCc1nn(-c2ccc(C(F)(F)F)cc2)cc1CCCOc1c(CC(=O)O)cccc1OC | 95 to 96
Cc1ccc2c(c1)OCC(=O)N2 | 197
O=C(C=Cc1cccnc1)NCCCCN1CCN(C(c2ccccc2)c2ccccc2)CC1 | 143 to 144
COC(=O)c1c(OC)c(OC)cc2[nH]c(=O)c(=O)[nH]c12 | > 300
O=C(O)C1=Cc2c(ccc(Cl)c2-c2ccco2)OC1C(F)(F)F (stereo not drawn) | 191 to 193
CCCCCCCC(c1cc(C)cc(N=Nc2ccc(C)cc2[N+](=O)[O-])c1O)c1cc(C)cc(N=Nc2ccc(C)cc2[N+](=O)[O-])c1O (stereo not drawn) | 145
COc1ccc2cc(C#N)c(=O)oc2c1C | 215
O=C(CN1CCCC1)NCc1ccc2c(c1)-c1[nH]nc(-c3ccsc3)c1C2 | 201 to 204
CC(C)[C@H]1c2ccc(F)cc2CC[C@]1(O)CC(=O)N(C)CCCc1nc2ccccc2[nH]1 | 132 to 138
O=C1c2c(Cl)cccc2-n2cnc(-c3noc(CN4CCCC4)n3)c2[C@@H]2CCN12 | 117 to 120
CC(c1oc2ccccc2c(=O)c1-c1cccc(F)c1)n1nc(-c2cc(F)c(O)c(F)c2)c2c(N)ncnc21 (stereo not drawn) | 253 to 257
Oc1ccc2nc(-c3ccc(O)c(F)c3)cc(-c3ccc(Cl)cc3)c2c1 | 140 to 147
CC(C)(C)C(O)(CC(Br)=CBr)Cn1cncn1 (stereo not drawn) | 81

SMILES | melting point [°C]
CC(=O)NC[C@H]1CN(c2ccc(N3C[C@H]4CN(C(C)=O)C[C@H]4C3)c(F)c2)C(=O)O1 | 168 to 170
Cc1ccc2nc(CCl)[nH]c(=O)c2c1 | 263 to 265
CN(C)C=Nc1c(-c2c(F)cc(F)cc2F)c(Cl)nc2ncnn12 | 188 to 190
CCOC(=O)C1=C(C)N(C(C)=O)C(c2cscn2)=NC1c1cccc(OC)c1 (stereo not drawn) | 130 to 131
O=C1C(=Cc2ccc(Cl)cc2)CCCC1=Cc1ccc(Cl)cc1 | 142 to 144
CC(=O)OC1CCCC2=CC=C3C4CCC(C(C)CCCC(C)C)C4(C)CCC3C21C (stereo not drawn) | 105 to 106
CC(C)(C)C(c1csc2ccccc12)[C@@H](OC(N)=O)c1nc(-c2ccccc2)c[nH]1 (stereo partly drawn) | 116 to 120
Cc1nc(C(N)=O)c2n1-c1ccc([N+](=O)[O-])cc1C(c1ccccc1Cl)=NC2 | > 300
CC(C)C1(C)NC(c2ccc(CO)cn2)=NC1=O (stereo not drawn) | 101 to 104
OCCN(CCO)Cc1nnc2n1-c1ccc(Cl)cc1C(c1ccccc1)=NC2 | 84 to 87
c1ccc2c(c1)[nH]c1cnc(-c3nc(C4CC4)no3)cc12 | 256 to 257
O=C(O)c1coc2ccc3ccc(O)cc3c2c1=O | 294 to 296
O=C1COCCN1c1ccc([N+](=O)[O-])cc1 | 150 to 152
O=C(COc1ccccc1)NC1C(=O)N2C(C(=O)OCc3ccccc3)N=CSC12 (stereo not drawn) | 142 to 143
Cc1cc2cc(CN3CCCC3)cnc2cc1NC(=O)c1ccc(-c2ccc(F)cc2)cc1F | 174 to 177
c1ccc(Cn2cnc3ccc(NC4=NCCN4)cc32)cc1 | 174 to 175
Cc1c(Cl)cc(O)cc1Cl | 92 to 93
C=C(Br)c1cc(O)cc2nc(-c3ccc(O)cc3)oc12 | 228 to 230
CCOC(=O)CCn1c(CC(=O)OCC)nc2c(N3CCCCC3)cccc21 | 82 to 85
CCOC(=O)CN(c1ccc(N)cc1)S(=O)(=O)c1cccc2ccccc12 | 98 to 103
CCN(C(=O)CN(C(=O)CNC(=O)Nc1cccc(C)c1)c1ccccc1)c1ccccc1 | 158
N#Cc1ccc(COC2COc3nc([N+](=O)[O-])cn3C2)cc1 (stereo not drawn) | 166 to 167
CON=C(C(C)=NN=Cc1ccccc1C(=NOC)C1=NOCCO1)c1ccccc1 | 136
Cc1ccccc1-c1ccc(Br)cc1C=O | 71 to 73
O=C(OCc1ccccc1)N1CCc2ccccc2C12CCC(C(=O)O)(C(=O)O)CC2 | 199 to 200

SMILES | melting point [°C]
COc1cc(N(Cc2cccnc2)c2ccc(C(=O)O)cc2)ccc1OC(F)F | 184 to 185
CCCCCS(=O)(=O)NC(=O)/C=C/c1ccc(OCCCOCC2CC2)cc1Oc1ncc(C(F)(F)F)cc1Cl | 124 to 125
Cc1cccc2oc(Nc3ccc(CC(=O)O)cc3)nc12 | 337 to 339
CCOC(=O)c1cn(Cc2cn(-c3ccc(N4CC(CNC(=O)OC)OC4=O)cc3F)nn2)nc1N (stereo not drawn) | 98 to 100
N[C@@H]1CCN(c2ccc3c(NC(=O)CC4CCCCC4)c(Cl)ccc3n2)C1 | 201 to 206
O=C(O)c1ccc(-c2c([N+](=O)[O-])oc3ccc(-c4ccccc4)cc23)cc1 | 235 to 249
COn1c(Br)c(C#N)c(Br)c1-c1ccc(Cl)cc1 | 195 to 197
CCCCCCCCCCCCCCCCCCCCCC(=O)Oc1cc(C(C)(C)C)c(O)c(C(C)(C)C)c1 | 59 to 61
O=C1N(Cc2cnccn2)c2ccccc2C12COc1cc3c(cc12)OCCO3 (stereo not drawn) | 216 to 218
C=CCOc1ccc(S(=O)(=O)c2ccc(OCC=C)cc2)cc1 | 140 to 142
O=C(C=Cc1cccc(-c2ccc(F)cc2)c1)Nc1ccc(CN2CCCCC2)cc1 | 166 to 167
O=Cc1cccc(-c2ccccn2)n1 | 41 to 43
Cc1cc(C(=O)O)cc(C)c1OCCNC(=O)C1Cc2ccccc2N1S(=O)(=O)c1ccc(-c2cccc(C(F)(F)F)c2)cc1 (stereo not drawn) | 120 to 126
CS(=O)(=O)c1ccc(-c2[nH]c(SCc3ccc4ccccc4n3)nc2-c2ccc(F)cc2)cc1 | 179 to 182
CCC(=O)Nc1nc(CC(=O)Nc2nnc(C(C)(C)C)s2)cs1 | 210 to 212
O=C1CCC(N2C(=O)c3cccc(NCc4cccc(Cl)c4)c3C2=O)C(=O)N1 (stereo not drawn) | 207 to 209
COc1ccc(N(N)c2nc(OCc3cccc(OC)c3)ncc2F)cc1 | 96 to 100
O=C1Nc2ccccc2Sc2c1csc2Cl | 287 to 288
Cc1cc(C)cc(C(OC(C)C(c2ccccc2)c2ccccc2)N(C)C(=O)c2ccccc2)c1 (stereo not drawn) | 89 to 91
CCNc1nc(Cc2ccc(OC)c(OC)c2)nc2sc(C#N)c(C)c12 | 125 to 126
COc1cccc(C2=C(C#N)C(c3ccccc3[N+](=O)[O-])c3c[nH]nc3N2)c1 (stereo not drawn) | 220
Cn1cc(C(=O)NCCCO)c(Nc2ccc(Br)cc2F)cc1=O | 78 to 83
CCCC(c1cc(C(=O)Nc2ccccc2)ccc1OCc1ccc(Br)cc1)n1ccnc1 (stereo not drawn) | 159 to 166
